Experimental data taken from patent US7456167B2, “Cyclopropyl fused indolobenzazepine HCV NS5B inhibitors” (Bristol-Myers Squibb Company, priority 2006, dated 2008).
pEC50, pIC50: −log10 of the molar value. Read-outs that look alike come from different tables or passages of the source.

Columns and labels:
[1] = system: HCV replicon cells; test: HCV replicon FRET assay; type: cell-based
Excerpt: FRET Assay Preparation. To perform the HCV FRET screening assay, 96-well cell culture plates were used. The FRET peptide (Anaspec, Inc.) (Taliani et al., Anal. Biochem. 1996, 240, 60-67) contains a fluorescence donor, EDANS, near one end of the peptide and an acceptor, DABCYL, near the other end. The fluorescence of the peptide is quenched by […] resonance energy transfer (RET) between the donor and the acceptor, but as the NS3 protease cleaves the peptide the products are released from RET quenching and the fluorescence of the donor becomes apparent. The assay reagent was made as follows: 5× cell Luciferase cell culture lysis reagent from Promega (#E153A) diluted to 1× with dH2O, NaCl added to 150 mM final, the FRET peptide diluted to 20 uM final from a 2 mM stock.
To prepare plates, HCV replicon cells, with or without a Renilla luciferase reporter gene, were trypsinized and placed into each well of a 96-well plate with titrated test compounds added in columns 3 through 12; columns 1 and 2 contained a control compound (HCV protease inhibitor), and the bottom row contained cells without compound. The plates were then placed in a CO2 incubator at 37° C.
Assays. Subsequent to addition of the test compounds described above (FRET Assay Preparation), at various times the plate was removed and Alamar blue solution (Trek Diagnostics, #00-100) was added per well as a measure of cellular toxicity. After reading in a Cytoflour 4000 instrument (PE Biosystems), plates were rinsed with PBS and then used for FRET assay by the addition of 30 ul of the FRET peptide assay reagent described above (FRET Assay Preparation) per well. The plate was then placed into the Cytoflour 4000 instrument which had been set to 340 excite/490 emission, automatic mode for 20 cycles and the plate read in a kinetic mode. Typically, the signal to noise using an endpoint analysis after the reads was at least three-fold. Alternatively, after Alamar blue reading, plates were rinsed with PBS, 50 ul of DMEM (high glucose) without phenol red was added and plates were then used for luciferase assay using the Promega Dual-Glo Luciferase Assay System.
Compound analysis was determined by quantification of the relative HCV replicon inhibition and the relative cytotoxicity values. To calculate cytoxicity values, the average Alamar Blue fluorescence signals from the control wells were set as 100% non-toxic. The individual signals in each of the compound test wells were then divided by the average control signal and multiplied by 100% to determine […]. To calculate the HCV replicon inhibition values, an average background value was obtained from the two wells containing the highest amount of HCV protease inhibitor at the end of the assay period. These numbers were similar to those obtained from naïve Huh-7 cells.
The background numbers were then subtracted from the average signal obtained from the control wells and this number was used as 100% activity. The individual signals in each of the compound test wells were then divided by the averaged control values after background subtraction and multiplied by 100% to determine percent activity. EC50 values for a protease inhibitor titration were calculated as the concentration which caused a 50% reduction in FRET or luciferase activity. The two numbers generated for the compound plate, percent cytoxicity and percent activity were used to determine compounds of interest for further analysis.

[2] = molecular target: T1, HCV NS5B RdRp genotype 1b (Hepatitis C virus genotype 1b, UniProt Q9WMX2); test: Modified HCV NS5B RdRp enzyme assay (preincubation protocol); type: biochemical
T1 construct: The protein was expressed with an 18 amino acid C-terminal truncation to enhance the solubility; made in house; host or cells: E. coli BL21(DE3)
Procedure: HCV NS5B RdRp cloning, expression, and purification. The cDNA encoding the NS5B protein of HCV, genotype 1b, was cloned into the pET21a expression vector. The protein was expressed with an 18 amino acid C-terminal truncation to enhance the solubility. The E. coli competent cell line BL21(DE3) was used for expression of the protein. Cultures were grown at 37° C. for ˜4 hours until the cultures reached an optical density of 2.0 at 600 nm. The cultures were cooled to 20° C. and induced with 1 mM IPTG. Fresh ampicillin was added to a final concentration of 50 μg/ml and the cells were grown overnight at 20° C.
Cell pellets (3 L) were lysed for purification to yield 15-24 mgs of purified NS5B. The lysis buffer consisted of 20 mM Tris-HCl, pH 7.4, 500 mM NaCl, 0.5% triton X-100, 1 mM DTT, 1 mM EDTA, 20% glycerol, 0.5 mg/ml lysozyme, 10 mM MgCl2, 15 ug/ml deoxyribonuclease I, and Complete TM protease inhibitor tablets (Roche). After addition of the lysis buffer, frozen cell pellets were resuspended using a tissue homogenizer. To reduce the viscosity of the sample, aliquots of the lysate were sonicated on ice using a microtip attached to a Branson sonicator. The sonicated lysate was centrifuged at 100,000×g for 1 hr at 4° C. and filtered through a 0.2 μm filter unit (Corning).
The protein was purified using three sequential chromatography steps: Heparin sepharose CL-6B, polyU sepharose 4B, and Hitrap SP sepharose (Pharmacia). The chromatography buffers were identical to the lysis buffer but contained no lysozyme, deoxyribonuclease I, MgCl2 or protease inhibitor and the NaCl concentration of the buffer was adjusted according to the requirements for charging the protein onto the column. Each column was eluted with a NaCl gradient which varied in length from 5-50 column volumes depending on the column type. After the final chromatography step, the resulting purity of the enzyme is >90% based on SDS-PAGE analysis. The enzyme was aliquoted and stored at −80° C.
Standard HCV NS5B RdRp enzyme assay. HCV RdRp genotype 1b assays were run in a final volume of 60 μl in 96 well plates (Costar 3912). The assay buffer is composed of 20 mM Hepes, pH 7.5, 2.5 mM KCl, 2.5 mM MgCl2, 1 mM DTT, 1.6 U RNAse inhibitor (Promega N2515), 0.1 mg/ml BSA (Promega R3961), and 2% glycerol. All compounds were serially diluted (3-fold) in DMSO and diluted further in water such that the final concentration of DMSO in the assay was 2%. HCV RdRp genotype 1b enzyme was used at a final concentration of 28 nM. A polyA template was used at 6 nM, and a biotinylated oligo-dT12 primer was used at 180 nM final concentration. Template was obtained commercially (Amersham 27-4110). Biotinylated primer was prepared by Sigma Genosys. 3H-UTP was used at 0.6 μCi (0.29 μM total UTP). Reactions were initiated by the addition of enzyme, incubated at 30° C. for 60 min, and stopped by adding 25 μl of 50 mM EDTA containing SPA beads (4 μg/μl, Amersham RPNQ 0007). Plates were read on a Packard Top Count NXT after >1 hr incubation at room temperature.
Modified HCV NS5B RdRp enzyme assay. A modified enzyme assay was performed essentially as described for the standard enzyme assay except for the following: The biotinylated oligo dT12 primer was precaptured on streptavidin-coated SPA beads by mixing primer and beads in assay buffer and incubating at room temperature for one hour. Unbound primer was removed after centrifugation. The primer-bound beads were resuspended in 20 mM Hepes buffer, pH 7.5 and used in the assay at final concentrations of 20 nM primer and 0.67 μg/μl beads. Order of addition in the assay: enzyme (14 nM) was added to diluted compound followed by the addition of a mixture of template (0.2 nM), 3H-UTP (0.6 μCi, 0.29 μM), and primer-bound beads, to initiate the reaction; concentrations given are final. Reactions were allowed to proceed for 4 hours at 30° C.
IC50 values for compounds were determined using seven different [I]. […]

[3] = Hepatitis C virus, HCV replicon cells, FRET assay, read-out: EC50
[4] = HCV NS5B RdRp genotype 1b, preincubation protocol, read-out: IC50

T1 sequence (Q9WMX2 2420-2992): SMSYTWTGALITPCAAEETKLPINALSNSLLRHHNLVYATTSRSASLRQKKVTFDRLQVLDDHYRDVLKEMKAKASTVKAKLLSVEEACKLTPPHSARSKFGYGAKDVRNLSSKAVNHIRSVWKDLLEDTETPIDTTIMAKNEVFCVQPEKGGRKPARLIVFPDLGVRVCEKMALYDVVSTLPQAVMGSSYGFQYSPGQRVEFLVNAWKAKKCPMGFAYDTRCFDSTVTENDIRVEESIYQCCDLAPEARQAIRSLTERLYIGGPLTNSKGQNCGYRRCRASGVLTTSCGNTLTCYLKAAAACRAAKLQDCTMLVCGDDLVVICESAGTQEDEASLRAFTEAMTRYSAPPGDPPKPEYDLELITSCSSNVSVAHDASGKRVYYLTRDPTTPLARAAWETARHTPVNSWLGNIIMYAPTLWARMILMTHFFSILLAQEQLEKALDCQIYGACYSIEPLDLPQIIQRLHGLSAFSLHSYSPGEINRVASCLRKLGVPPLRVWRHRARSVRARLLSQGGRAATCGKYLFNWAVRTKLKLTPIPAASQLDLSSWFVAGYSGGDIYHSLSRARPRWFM

Row | SMILES | pEC50 [1, 3] | pIC50 [2, 4] | pEC50 ([1]; HCV replicon cells, FRET assay, read-out: EC50) | pEC50 ([1]; Hepatitis C virus) | pIC50 [2]
1 | CCS(=O)(=O)C1Cc2ccccc2-c2c(C3CCCCC3)c3ccc(C(=O)NS(=O)(=O)N(C)C)cc3n2C1 (stereo not drawn) | 6.00 to 7.70 | 6.00 to 7.70 |  |  | 
2 | COc1ccc2c(c1)C1CC1(S(=O)(=O)N1CCN(S(C)(=O)=O)CC1)Cn1c-2c(C2CCCCC2)c2ccc(C(=O)NS(=O)(=O)N(C)C)cc21 (stereo not drawn) | 6.00 to 7.70 | 6.00 to 7.70 |  |  | 
3 | COc1ccc2c(c1)C1CC1(S(=O)(=O)N1CCCC1)Cn1c-2c(C2CCCCC2)c2ccc(C(=O)NS(=O)(=O)N3CCOCC3)cc21 (stereo not drawn) | 6.00 to 7.70 | 6.00 to 7.70 |  |  | 
4 | CCS(=O)(=O)C12CC1c1ccccc1-c1c(C3CCCCC3)c3ccc(C(=O)NS(=O)(=O)N(C)C)cc3n1C2 (stereo not drawn) | 6.00 to 7.70 | 6.00 to 7.70 |  |  | 
5 | COc1ccc2c(c1)C=C(S(=O)(=O)N1CCOCC1)Cn1c-2c(C2CCCCC2)c2ccc(C(=O)NS(=O)(=O)N(C)C)cc21 | 6.00 to 7.70 | 6.00 to 7.70 |  |  | 
6 | COc1ccc2c(c1)C1CC1(S(=O)(=O)N1CCN3CCCC3C1)Cn1c-2c(C2CCCCC2)c2ccc(C(=O)NS(=O)(=O)N3CCOCC3)cc21 (stereo not drawn) [drawing 65] |  | 6.00 to 7.70 | 6.00 to 7.70 |  | 
7 | COc1ccc2c(c1)C1CC1(S(=O)(=O)N(C)CCN(C)C)Cn1c-2c(C2CCCCC2)c2ccc(C(=O)NS(=O)(=O)N(C)C)cc21 (stereo not drawn) | 6.00 to 7.70 | 6.00 to 7.70 |  |  | 
8 | COC[C@@H]1CN(S(=O)(=O)C23CC2c2cc(OC)ccc2-c2c(C4CCCCC4)c4ccc(C(=O)NS(=O)(=O)N5CCOCC5)cc4n2C3)CCO1 (stereo partly drawn) | 6.00 to 7.70 | 6.00 to 7.70 |  |  | 
9 | COC[C@@H]1CN(S(=O)(=O)C23CC2c2cc(OC)ccc2-c2c(C4CCCCC4)c4ccc(C(=O)NS(=O)(=O)C(C)C)cc4n2C3)CCO1 (stereo partly drawn) | 6.00 to 7.70 | 6.00 to 7.70 |  |  | 
10 | COc1ccc2c(c1)C1CC1(S(=O)(=O)N1CC(C)(O)C1)Cn1c-2c(C2CCCCC2)c2ccc(C(=O)O)cc21 (stereo not drawn) | 6.00 to 7.70 | 6.00 to 7.70 |  |  | 
11 | COc1ccc2c(c1)C1CC1(S(=O)(=O)N1C[C@@H](C)O[C@@H](C)C1)Cn1c-2c(C2CCCCC2)c2ccc(C(=O)O)cc21 (stereo partly drawn) | 6.00 to 7.70 | 6.00 to 7.70 |  |  | 
12 | COc1ccc2c(c1)C1CC1(S(=O)(=O)N(C)CCN(C)C)Cn1c-2c(C2CCCCC2)c2ccc(C(=O)O)cc21 (stereo not drawn) | 6.00 to 7.70 | 6.00 to 7.70 |  |  | 
13 | COc1ccc2c(c1)C1CC1(S(=O)(=O)N1C3CCC1CN(C)C3)Cn1c-2c(C2CCCCC2)c2ccc(C(=O)NS(=O)(=O)N(C)C)cc21 (stereo not drawn) |  |  |  | 6.00 to 7.70 | 6.00 to 7.70
14 | COc1ccc2c(c1)C1CC1(S(=O)(=O)N1C[C@@H](C)N(C)[C@@H](C)C1)Cn1c-2c(C2CCCCC2)c2ccc(C(=O)NS(=O)(=O)N(C)C)cc21 (stereo partly drawn) | 6.00 to 7.70 | 6.00 to 7.70 |  |  | 
15 | COc1ccc2c(c1)C1CC1(S(=O)(=O)N1C[C@@H](C)N(C)[C@@H](C)C1)Cn1c-2c(C2CCCCC2)c2ccc(C(=O)NS(C)(=O)=O)cc21 (stereo partly drawn) | 6.00 to 7.70 | 6.00 to 7.70 |  |  | 
16 | COc1ccc2c(c1)C1CC1(S(=O)(=O)N1C[C@@H](C)N(C)[C@@H](C)C1)Cn1c-2c(C2CCCCC2)c2ccc(C(=O)NS(=O)(=O)N3CCC3)cc21 (stereo partly drawn) | 6.00 to 7.70 | 6.00 to 7.70 |  |  | 
17 | COc1ccc2c(c1)C1CC1(S(=O)(=O)N1CCN3CCC1CC3)Cn1c-2c(C2CCCCC2)c2ccc(C(=O)NS(=O)(=O)N3CCOCC3)cc21 (stereo not drawn) | 6.00 to 7.70 | 6.00 to 7.70 |  |  | 
18 | COc1ccc2c(c1)C1CC1(S(=O)(=O)N1C3CCC1CC(C)(O)C3)Cn1c-2c(C2CCCCC2)c2ccc(C(=O)NS(=O)(=O)C(C)C)cc21 (stereo not drawn) |  |  |  | 6.00 to 7.70 | 6.00 to 7.70
19 | COc1ccc2c(c1)C1CC1(S(=O)(=O)N1CCC1)Cn1c-2c(C2CCCCC2)c2ccc(C(=O)NS(=O)(=O)C(C)C)cc21 (stereo not drawn) | 6.00 to 7.70 | 6.00 to 7.70 |  |  | 
20 | COc1ccc2c(c1)C1CC1(S(=O)(=O)N1CCN3CCCC3C1)Cn1c-2c(C2CCCCC2)c2ccc(C(=O)NS(=O)(=O)N3CCOCC3)cc21 (stereo not drawn) [drawing 64] | 6.00 to 7.70 | 6.00 to 7.70 |  |  | 
21 | COc1ccc2c(c1)C1CC1(S(=O)(=O)N1C[C@@H](C)N(C)[C@@H](C)C1)Cn1c-2c(C2CCCCC2)c2ccc(C(=O)O)cc21 (stereo partly drawn) | 6.00 to 7.70 | 6.00 to 7.70 |  |  | 
22 | CCN(C)S(=O)(=O)NC(=O)c1ccc2c(C3CCCCC3)c3n(c2c1)CC1(S(=O)(=O)N2C[C@@H](C)N(C)[C@@H](C)C2)CC1c1cc(OC)ccc1-3 (stereo partly drawn) | 6.00 to 7.70 | 6.00 to 7.70 |  |  | 
23 | CCS(=O)(=O)NC(=O)c1ccc2c(C3CCCCC3)c3n(c2c1)CC1(S(=O)(=O)N2C[C@@H](C)N(C)[C@@H](C)C2)CC1c1cc(OC)ccc1-3 (stereo partly drawn) | 6.00 to 7.70 | 6.00 to 7.70 |  |  | 
24 | COc1ccc2c(c1)C1CC1(S(=O)(=O)N1C3CC1CN(C)C3)Cn1c-2c(C2CCCCC2)c2ccc(C(=O)NS(=O)(=O)C(C)C)cc21 (stereo not drawn) | 6.00 to 7.70 | 6.00 to 7.70 |  |  | 
25 | COc1ccc2c(c1)C1CC1(S(=O)(=O)N1CCCC1)Cn1c-2c(C2CCCCC2)c2ccc(C(=O)NS(=O)(=O)C(C)C)cc21 (stereo not drawn) | 6.00 to 7.70 | 6.00 to 7.70 |  |  | 
26 | COc1ccc2c(c1)C1CC1(S(=O)(=O)N1CCCN(C)CC1)Cn1c-2c(C2CCCCC2)c2ccc(C(=O)NS(=O)(=O)N(C)C)cc21 (stereo not drawn) | 6.00 to 7.70 | 6.00 to 7.70 |  |  | 
27 | COc1ccc2c(c1)C1CC1(S(=O)(=O)N1CC3C[C@H]1CN3C)Cn1c-2c(C2CCCCC2)c2ccc(C(=O)NS(=O)(=O)N(C)C)cc21 (stereo partly drawn) | 6.00 to 7.70 | 6.00 to 7.70 |  |  | 
